Patent US10561658B2, “Thieno- and pyrrolopyrimidine analogues as anticancer agents and methods of use thereof” (UNIVERSITY OF MARYLAND, BALTIMORE COUNTY, priority 2015, dated 2020)

Key:
[1] = tested on: human lymphocytic CEM cells; test: Cell proliferation assay, CEM; type: cell-based; settings: CCRF-CEM, 72 h proliferation, Coulter counter
Method: (§1) Cell proliferation assays for several of the compounds were performed on L1210, a mouse lymphocytic leukemia cell line; CCRF-CEM [39] an acute lymphoblastic leukemia cell line; and HeLa, a human cancer cell line derived from a human cervical adenocarcinoma. Murine Leukemia L1210, human lymphocytic CEM and human cervix carcinoma HeLa cells were obtained from the American Type Culture Collection (ATCC) (Rockville, Md.). All assays were performed in 96-well microtiter plates. To each well were added (5-7.5)×10^4 tumor cells and a given amount of the test compound. The cells were allowed to proliferate for 48 h (murine leukemia L1210 cells) or 72 h (human lymphocytic CEM and human cervix carcinoma HeLa cells) at 37° C. in a humidified CO2-controlled atmosphere. At the end of the incubation period, the cells were counted in a Coulter counter. The IC50 (50% inhibitory concentration) was defined as the concentration of the compound that inhibited cell proliferation by 50%. […] Presence of C7 iodine on the 2,4-dichloro pyrrolo[3,2-d] (compound 20) increases the anticancer activity by a factor of 5 when compared to compound 19. […] This alludes to a) importance of C7-I towards activity against cancer cell lines for the 2,4-O-benzylated analogues (15 and 16).

[2] = tested on: murine leukemia L1210 cells; test: Cell proliferation assay, L1210; type: cell-based; settings: Mus musculus, 48 h proliferation, Coulter counter, read-out: IC50 L1210
Method: as §1

[3] = tested on: human cervix carcinoma HeLa cells; test: Cell proliferation assay, HeLa; type: cell-based; settings: 72 h proliferation, Coulter counter
Method: as §1

[4] = tested on: Escherichia coli ATCC 25922; test: Antimicrobial growth inhibition, E. coli; type: cell-based; settings: ATCC25922; Escherichia coli ATCC 25922, 100 μM
Method: (§2) Evaluation of antimicrobial activity in vitro. Compounds were tested against the following panel of bacteria and fungi purchased from the American Type Culture Collection (ATCC). Briefly, bacteria were grown to mid-log phase, diluted with fresh medium to an optical density at 600 nm (OD600) of 0.030-0.060 and then diluted again 1:10. This suspension (195 μL) was added to wells in a 96 well microtiter plate (Sarstedt) and 5 μL of compound dissolved in DMSO was added to give a final concentration of 100-0.1 μM at 2.5% DMSO by volume. A DMSO negative control and standard antibiotic positive controls were included in each plate. All compounds were tested in triplicate for each concentration. Plates were sealed with parafilm, placed in a Ziploc bag to prevent evaporation, and incubated at 30° C. (fungi) or 37° C. (bacteria) for 16-20 hours (48 hours for C. neoformans). The OD600 values for each well were determined with a plate reader (Biotek, EL800) and the data were standardized to the DMSO control wells after subtracting the background from blank medium. Initial single concentrations were tested at 100 μM and active compounds were further tested with at least nine concentrations for a full dose response. Dose response curves were generated using GraphPad Prism 5 software and used to determine the MIC95 concentrations (minimal concentration that inhibits 95% of growth). Compounds 1, 2, 5 and 19 were screened for growth inhibition activity against a panel of bacteria and fungi at a concentration of 100 as shown in Table 2. Compound 5 was included to test the importance of the C4-Cl substituent for activity across a broader range of biological systems.

[5] = tested on: Staphylococcus aureus subsp. aureus (MRSA) ATCC 43300; test: Antimicrobial growth inhibition, S. aureus (MRSA); type: cell-based; settings: Staphylococcus aureus (MRSA) ATCC 43300, 100 μM
Method: as §2

[6] = tested on: Bacillus subtilis ATCC 6633; test: Antimicrobial growth inhibition, B. subtilis; type: cell-based; settings: ATCC6633; Bacillus subtilis ATCC 6633, 100 μM
Method: as §2

[7] = tested on: Candida albicans ATCC 10231; test: Antifungal growth inhibition and MIC95, C. albicans; type: cell-based; settings: ATCC10231; Candida albicans ATCC 10231, 100 μM
Method: as §2
(§3) Compounds 1 and 2 were further tested against the susceptible fungal strains to determine the MIC95 values.

[8] = tested on: Cryptococcus neoformans; test: Antifungal growth inhibition and MIC95, C. neoformans strains; type: cell-based
Method: as §2, §3

[9] = tested on: MDA-MB-231 cells; test: Cell cycle distribution (propidium iodide, flow cytometry), MDA-MB-231; type: cell-based, human; settings: 1.75 μM
Method: Cell cycle distributions of MDA-MB-231 cells after 48 hours in the presence of equitoxic (IC80) doses of (a) compound 1 (15 μM) or (b) compound 2 (8 μM) analyzed by flow cytometry of fixed, propidium iodide-stained cells and compared to vehicle controls (DMSO). A minimum of 3000 cells were analyzed per cell population. Each bar represents the mean±SD across 4 independent cell samples.
(§4) Cell-cycle and apoptosis studies were conducted in MDA-MB-231 cells. Cell-cycle analysis of compound 19 at 15 μM concentration lead to arrest of 60% cells in G2/M stage. Similarly, at 1.75 μM concentration, compound 20 arrested 30% of cells in G2/M stage. […] To evaluate the possible mechanism for arrest of cell proliferation, cell-cycle distribution was measured using propidium iodide staining and flow cytometry. […] There are several possibilities that could account for this, including: (i) that cell lysis occurs rapidly following induction of apoptosis, preventing significant accumulation of annexin V-positive bodies, or (ii) that a distinct cell death pathway is triggered by compound 19.
Human metastatic breast cancer MDA-MB-231 cells were obtained from the American Type Culture Collection (ATCC) (Rockville, Md.) and maintained in Dulbecco's Modified Eagle's Medium (DMEM) containing 10% fetal bovine serum (FBS) without antibiotics at 37° C. in a humidified, CO2-controlled incubator. The cytotoxicity of compounds 1 and 2 was assessed by reduction of 3-(4, 5-dimethylthiazol-2-yl)-2,5-diphenyltetrazolium bromide (MTT). MDA-MB-231 cells were seeded in 96-well plates at 5×10^3 cells per well and treated with a range of drug concentrations. After 48 hours, cell viability was measured using the MTT Cell Proliferation Assay kit (ATCC) according to the manufacturer's instructions. Percent cell viability was plotted as a function of drug concentrations and analyzed using a sigmoidal dose response function with PRISM v3.03 software (GraphPad) to resolve drug concentrations yielding 50% cell death (IC50). The cell cycle distributions of MDA-MB-231 cells treated with compounds 1 or 2 were analyzed using propidium iodide staining and flow cytometry. 2×10^6 cells were seeded in 100 mm dishes and treated with compounds 1 or 2 at the IC80 values determined by cell viability assays or an equivalent volume of DMSO. 48 h following treatment the cells were collected, fixed, and stained with propidium iodide (Sigma Aldrich) immediately before analysis by flow cytometry.
As shown in Example 11, compounds 1 and 2 both induced apoptosis but involving a mechanism independent of cell cycle arrest. To test whether the toxicity of these agents for MDA-MB-231 cells proceeded via a similar pathway, their effects were monitored on cell cycle distributions using propidium iodide staining and flow cytometry. […]

[10] = tested on: MDA-MB-231 cells; test: Apoptosis (annexin V), MDA-MB-231; type: cell-based, human; settings: MDA-MB-231, tested concentration
Method: as §4

[11] = tested on: L1210, CEM and HeLa cells; test: Cell proliferation assays, comparison across cancer cell lines; type: cell-based; settings: C7 iodine vs compound 19
Method: as §1

| Structure (SMILES) | IC50 [1] [µM] | IC50 [2] [µM] | IC50 [3] [µM] | inhibition at 100 µM [4] [%] | inhibition at 100 µM [5] [%] | inhibition at 100 µM [6] [%] | inhibition at 100 µM [7] [%] | inhibition at 100 µM ([8]; ATCC66031, Cryptococcus neoformans ATCC 66031, 100 μM) [%] | inhibition at 100 µM ([8]; C. neoformans B4546, 100 μM) [%] | inhibition at 100 µM ([8]; C. neoformans JEC20, 100 μM) [%] | inhibition at 100 µM ([8]; C. neoformans VANC-R265, 100 μM) [%] | cells arrested in G2/M stage [9] [%] | annexin V-positive cells [10] | increase of anticancer activity by a factor, compared to compound 19 [11] |
| --- | --- | --- | --- | --- | --- | --- | --- | --- | --- | --- | --- | --- | --- | --- |
| c1ccc(COc2nc(OCc3ccccc3)c3[nH]ccc3n2)cc1 [Compound 15, 2,4-Bis-benzyloxy-5H-pyrrolo[3,2-d]pyrimidine] | 86 | 118 ± 8 | 98 |  |  |  |  |  |  |  |  |  |  |  |
| Clc1ncc2sccc2n1 [Compound 5] |  |  |  | < 43 | < 43 | < 43 | < 43 | < 43 | < 43 | < 43 | < 43 |  |  |  |
| Ic1c[nH]c2c(OCc3ccccc3)nc(OCc3ccccc3)nc12 [Compound 16, 7-iodo-2,4-bis-benzyloxy-5H-pyrrolo[3,2-d]pyrimidine] | 17 | 21 ± 2 | 17 |  |  |  |  |  |  |  |  |  |  |  |
| Clc1nc(Cl)c2[nH]cc(I)c2n1 [Compound 20, 7-iodo-2,4-dichloro pyrrolo[3,2-d]pyrimidine] | 4.9 | 0.93 | 0.92 |  |  |  |  |  |  |  |  | 30 | robust accumulation | 5 |
